# Assays:
# Assay in all cases: Test B pre-/postemergence plant response
# Type in all cases: in vivo
# [1] = test system: Italian ryegrass (Lolium multiflorum)
# Outline: (§1)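 Pre-em in loam/sand; post-em at 1–4 leaf (2–18 cm) in peat mix. Solvent + surfactant formulation. Greenhouse 13–15 d; visual % control vs untreated, 0–100.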
# [2] = test system: Surinam grass (Brachiaria decumbens)
# Outline: as §1
# [3] = test system: bermudagrass (Cynodon dactylon); settings: for Bermudagrass plant response rating (0 to 100 scale): 0 is no effect
# Outline: as §1
# [4] = test system: blackgrass (Alopecurus myosuroides); settings: for Blackgrass plant response rating (0 to 100 scale): 0 is no effect
# Outline: as §1
# [5] = test system: cocklebur (Xanthium strumarium)
# Outline: as §1
# [6] = test system: downy bromegrass (Bromus tectorum); settings: for Bromegrass, Downy plant response rating (0 to 100 scale): 0 is no effect
# Outline: as §1
# [7] = test system: kochia (Kochia scoparia)
# Outline: as §1
# [8] = test system: large crabgrass (Digitaria sanguinalis)
# Outline: as §1
# [9] = test system: morningglory (Ipomoea coccinea)
# Outline: as §1
# [10] = test system: ragweed (common ragweed, Ambrosia elatior)
# Outline: as §1
# [11] = test system: wheat (Triticum aestivum)
# Outline: as §1
# [12] = test system: wild oat (Avena fatua)
# Outline: as §1
# [13] = test system: woolly cupgrass (Eriochloa villosa)
# Outline: as §1
# [14] = 31 g ai/ha, postemergence, scale 0 to 100, 0 is no effect, 100 is complete control
# [15] = 62 g ai/ha, postemergence, 0 is no effect, 100 is complete control, 13 to 15 days
# [16] = Postemergence, 125 g ai/ha, visual rating after 13 to 15 days, scale 0 (no effect) to 100 (complete control)
# [17] = Postemergence, 250 g ai/ha, scale 0 to 100 (0 no effect, 100 complete control)
# [18] = Preemergence, 31 g ai/ha, scale 0 to 100 (0 no effect, 100 complete control)
# [19] = Preemergence, 62 g ai/ha, scale 0 to 100 (0 no effect, 100 complete control)
# [20] = Preemergence, 125 g ai/ha, scale 0 to 100, 0 no effect, 100 complete control
# [21] = Preemergence, 250 g ai/ha, 0 to 100 scale
# [22] = 62 g ai/ha, postemergence, 100 is complete control, 13 to 15 days
# [23] = Postemergence, 31 g ai/ha, 0 to 100 scale (0 no effect, 100 complete control)
# [24] = Postemergence, 125 g ai/ha, scale 0 to 100 (0 no effect, 100 complete control)
# [25] = Postemergence, 250 g ai/ha, scale 0 to 100 (0 no effect, 100 complete control), 13 to 15 days
structure (smiles),measurement,setting,value
CCCn1c(-c2cccs2)ncc(C(=O)C2=C(O)CCCC2=O)c1=O [Compound 77],"Plant response rating, Ryegrass, Italian",[1]; [14],0
same,"Ryegrass, Italian plant response rating (0 to 100 scale)",[1]; [15],5
same,"Plant response rating, Ryegrass, Italian",[1]; [16],5
same,"Plant response rating, Ryegrass, Italian",[1]; [17],10
same,"Plant response rating, Ryegrass, Italian",[1]; [18],0
same,"Plant response rating, Ryegrass, Italian",[1]; [19],0
same,"Plant response rating, Ryegrass, Italian",[1]; [20],0
same,"Ryegrass, Italian plant response rating",[1]; [21],0
same,"Plant response rating, Surinam Grass",[2]; [14],65
same,Surinam Grass plant response rating (0 to 100 scale),[2]; [15],65
same,"Plant response rating, Surinam Grass",[2]; [16],75
same,"Plant response rating, Surinam Grass",[2]; [17],80
same,"Plant response rating, Surinam Grass",[2]; [18],0
same,"Plant response rating, Surinam Grass",[2]; [19],20
same,"Plant response rating, Surinam Grass",[2]; [20],75
same,Surinam Grass plant response rating,[2]; [21],100
same,"Plant response rating, Bermudagrass",[3]; [14],90
same,Bermudagrass plant response rating (0 to 100 scale),[3]; [22],90
same,"Plant response rating, Bermudagrass",[3]; [16],95
same,"Plant response rating, Bermudagrass",[3]; [17],95
same,"Plant response rating, Bermudagrass",[3]; [18],55
same,"Plant response rating, Bermudagrass",[3]; [19],100
same,"Plant response rating, Bermudagrass",[3]; [20],100
same,Bermudagrass plant response rating,"[3]; Preemergence, 250 g ai/ha, 0 to 100 scale, 0 no effect, 100 complete control",100
same,"Plant response rating, Blackgrass",[4]; [14],0
same,Blackgrass plant response rating (0 to 100 scale),[4]; [22],0
same,"Plant response rating, Blackgrass",[4]; [16],0
same,"Plant response rating, Blackgrass",[4]; [17],5
same,"Plant response rating, Blackgrass",[4]; [18],0
same,"Plant response rating, Blackgrass",[4]; [19],0
same,"Plant response rating, Blackgrass",[4]; [20],0
same,Blackgrass plant response rating,[4]; [21],0
same,"Plant response rating, Cocklebur",[5]; [14],0
same,Cocklebur plant response rating (0 to 100 scale),[5]; [15],0
same,"Plant response rating, Cocklebur",[5]; [16],60
same,"Plant response rating, Cocklebur",[5]; [17],85
same,"Plant response rating, Cocklebur",[5]; [18],0
same,"Plant response rating, Cocklebur",[5]; [19],0
same,"Plant response rating, Cocklebur",[5]; [20],10
same,Cocklebur plant response rating,[5]; [21],65
same,"Plant response rating, Bromegrass, Downy",[6]; [14],0
same,"Bromegrass, Downy plant response rating (0 to 100 scale)",[6]; [22],5
same,"Plant response rating, Bromegrass, Downy",[6]; [16],5
same,"Plant response rating, Bromegrass, Downy",[6]; [17],5
same,"Plant response rating, Bromegrass, Downy",[6]; [18],0
same,"Plant response rating, Bromegrass, Downy",[6]; [19],0
same,"Plant response rating, Bromegrass, Downy",[6]; [20],0
same,"Bromegrass, Downy plant response rating",[6]; [21],0
same,"Plant response rating, Kochia",[7]; [14],75
same,Kochia plant response rating (0 to 100 scale),[7]; [15],80
same,"Plant response rating, Kochia",[7]; [16],95
same,"Plant response rating, Kochia",[7]; [17],95
same,"Plant response rating, Kochia",[7]; [18],85
same,"Plant response rating, Kochia",[7]; [19],90
same,"Plant response rating, Kochia",[7]; [20],90
same,Kochia plant response rating,[7]; [21],95
same,"Plant response rating, Crabgrass, Large",[8]; [14],55
same,"Crabgrass, Large plant response rating (0 to 100 scale)",[8]; [15],60
same,"Plant response rating, Crabgrass, Large",[8]; [16],75
same,"Plant response rating, Crabgrass, Large",[8]; [17],85
same,"Plant response rating, Crabgrass, Large",[8]; [18],70
same,"Plant response rating, Crabgrass, Large",[8]; [19],98
same,"Plant response rating, Crabgrass, Large",[8]; [20],98
same,"Crabgrass, Large plant response rating",[8]; [21],100
same,"Plant response rating, Morningglory",[9]; [14],75
same,Morningglory plant response rating (0 to 100 scale),[9]; [15],75
same,"Plant response rating, Morningglory",[9]; [16],80
same,"Plant response rating, Morningglory",[9]; [17],90
same,"Plant response rating, Morningglory",[9]; [18],0
same,"Plant response rating, Morningglory",[9]; [19],65
same,"Plant response rating, Morningglory",[9]; [20],75
same,Morningglory plant response rating,[9]; [21],90
same,"Plant response rating, Ragweed",[10]; [14],75
same,Ragweed plant response rating (0 to 100 scale),[10]; [15],75
same,"Plant response rating, Ragweed",[10]; [16],80
same,"Plant response rating, Ragweed",[10]; [17],85
same,"Plant response rating, Ragweed",[10]; [18],50
same,"Plant response rating, Ragweed",[10]; [19],75
same,"Plant response rating, Ragweed",[10]; [20],90
same,Ragweed plant response rating,[10]; [21],95
same,"Plant response rating, Wheat",[11]; [14],0
same,Wheat plant response rating (0 to 100 scale),[11]; [15],5
same,"Plant response rating, Wheat",[11]; [16],10
same,"Plant response rating, Wheat",[11]; [17],10
same,"Plant response rating, Wheat",[11]; [18],0
same,"Plant response rating, Wheat",[11]; [19],0
same,"Plant response rating, Wheat",[11]; [20],0
same,Wheat plant response rating,[11]; [21],0
same,"Plant response rating, Oat, Wild",[12]; [14],0
same,"Oat, Wild plant response rating (0 to 100 scale)",[12]; [15],5
same,"Plant response rating, Oat, Wild",[12]; [16],5
same,"Plant response rating, Oat, Wild",[12]; [17],5
same,"Plant response rating, Oat, Wild",[12]; [18],0
same,"Plant response rating, Oat, Wild",[12]; [19],0
same,"Plant response rating, Oat, Wild",[12]; [20],0
same,"Oat, Wild plant response rating",[12]; [21],0
same,"Plant response rating, Cupgrass, Woolly",[13]; [14],20
same,"Cupgrass, Woolly plant response rating (0 to 100 scale)",[13]; [15],20
same,"Plant response rating, Cupgrass, Woolly",[13]; [16],35
same,"Plant response rating, Cupgrass, Woolly",[13]; [17],40
same,"Plant response rating, Cupgrass, Woolly",[13]; [18],0
same,"Plant response rating, Cupgrass, Woolly",[13]; [19],0
same,"Plant response rating, Cupgrass, Woolly",[13]; [20],0
same,"Cupgrass, Woolly plant response rating",[13]; [21],0
O=C1CCCC(O)=C1C(=O)c1cnc(-c2ccccc2)n(C2CCSCC2)c1=O [Compound 164],"Plant response rating, Ryegrass, Italian",[1]; [23],5
same,"Plant response rating, Ryegrass, Italian",[1]; [24],20
same,"Plant response rating, Ryegrass, Italian",[1]; [25],40
same,"Plant response rating, Surinam Grass",[2]; [23],60
same,"Plant response rating, Surinam Grass",[2]; [24],95
same,"Plant response rating, Surinam Grass",[2]; [25],98
same,Bermudagrass plant response rating (0 to 100 scale),[3]; [22],98
same,"Plant response rating, Bermudagrass",[3]; [23],70
same,"Plant response rating, Bermudagrass",[3]; [24],98
same,"Plant response rating, Bermudagrass",[3]; [25],100
same,Blackgrass plant response rating (0 to 100 scale),[4]; [22],5
same,"Plant response rating, Blackgrass",[4]; [23],5
same,"Plant response rating, Blackgrass",[4]; [24],10
same,"Plant response rating, Blackgrass",[4]; [25],35
same,"Plant response rating, Cocklebur",[5]; [23],98
same,"Plant response rating, Cocklebur",[5]; [24],100
same,"Plant response rating, Cocklebur",[5]; [25],100
same,"Bromegrass, Downy plant response rating (0 to 100 scale)",[6]; [22],80
same,"Plant response rating, Bromegrass, Downy",[6]; [23],40
same,"Plant response rating, Bromegrass, Downy",[6]; [24],85
same,"Plant response rating, Bromegrass, Downy",[6]; [25],95
same,"Plant response rating, Kochia",[7]; [23],98
same,"Plant response rating, Kochia",[7]; [24],100
same,"Plant response rating, Kochia",[7]; [25],100
same,"Plant response rating, Crabgrass, Large",[8]; [23],95
same,"Plant response rating, Crabgrass, Large",[8]; [24],98
same,"Plant response rating, Crabgrass, Large",[8]; [25],100
same,"Plant response rating, Morningglory",[9]; [23],90
same,"Plant response rating, Morningglory",[9]; [24],98
same,"Plant response rating, Morningglory",[9]; [25],100
same,"Plant response rating, Ragweed",[10]; [23],85
same,"Plant response rating, Ragweed",[10]; [24],98
same,"Plant response rating, Ragweed",[10]; [25],100
same,"Plant response rating, Wheat",[11]; [23],0
same,"Plant response rating, Wheat",[11]; [24],35
same,"Plant response rating, Wheat",[11]; [25],50
same,"Plant response rating, Oat, Wild",[12]; [23],25
same,"Plant response rating, Oat, Wild",[12]; [24],85
same,"Plant response rating, Oat, Wild",[12]; [25],90
same,"Plant response rating, Cupgrass, Woolly",[13]; [23],75
same,"Plant response rating, Cupgrass, Woolly",[13]; [24],98
same,"Plant response rating, Cupgrass, Woolly",[13]; [25],100
